Source: BindingDB's records for doi:10.7270/Q2D798VP (Broad Institute, 2009)
Where a name gives a salt, the structure may show the parent alone.

Target: T1, Zinc finger protein mex-5 (Caenorhabditis elegans, UniProt Q9XUB2)
T1 sequence (Q9XUB2 whole entry): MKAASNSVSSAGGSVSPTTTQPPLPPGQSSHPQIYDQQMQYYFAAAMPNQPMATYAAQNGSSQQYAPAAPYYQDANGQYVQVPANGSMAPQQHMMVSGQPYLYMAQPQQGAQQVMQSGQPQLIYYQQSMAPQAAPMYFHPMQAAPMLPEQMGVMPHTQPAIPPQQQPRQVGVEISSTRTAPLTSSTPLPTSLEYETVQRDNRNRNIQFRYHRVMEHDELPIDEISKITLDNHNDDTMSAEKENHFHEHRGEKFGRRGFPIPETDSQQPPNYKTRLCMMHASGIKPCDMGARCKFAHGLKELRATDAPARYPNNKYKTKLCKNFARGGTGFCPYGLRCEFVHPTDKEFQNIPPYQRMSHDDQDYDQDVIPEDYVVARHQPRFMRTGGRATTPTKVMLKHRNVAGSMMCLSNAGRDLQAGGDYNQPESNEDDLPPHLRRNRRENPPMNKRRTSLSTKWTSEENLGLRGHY
Assay: MEX-5/TCR-2 RNA interaction inhibitors, dose response, biochemical, C. elegans, fluorescence polarization (AID 1960)

| Compound | EC50 [µM] |
| --- | --- |
| O=C(O)c1ccc(NN=CC2=C(N3CCOCC3)C(=Cc3ccccc3)CC2)cc1 [4-[2-[[(3Z)-2-(4-morpholinyl)-3-(phenylmethylene)-1-cyclopentenyl]methylidene]hydrazinyl]benzoic acid] | 109 |
| Cc1nnc(SC(=Cc2ccc(OCc3ccc(C(=O)O)cc3)cc2)C(=O)O)[nH]1 [4-[[4-[(E)-2-[(5-methyl-1H-1,2,4-triazol-3-yl)sulfanyl]-3-oxidanyl-3-oxidanylidene-prop-1-enyl]phenoxy]methyl]benzoic acid] | 3.38 |
| CC1(C)CC(=O)C2=C(C1)OC(=N)C(C#N)C2c1ccc(OC(=O)N2CCOCC2)cc1 (stereo unspecified) [4-morpholinecarboxylic acid [4-(2-amino-3-cyano-7,7-dimethyl-5-oxo-6,8-dihydro-4H-1-benzopyran-4-yl)phenyl] ester] | > 300 |
| Cc1sc2ncnc(N=NC(C)c3ccccn3)c2c1C (stereo unspecified) [5,6-dimethyl-N-(1-pyridin-2-ylethylideneamino)thieno[2,3-d]pyrimidin-4-amine] | 46.7 |
| NC(=NNC=c1ccc(=C2C=CC(=O)C(C(=O)O)=C2)o1)N[N+](=O)[O-] [5-(5-{2-[amino(nitroimino)methyl]carbonohydrazonoyl}-2-furyl)-2-hydroxybenzoic acid] | 26.1 |
| O=C1N=c2ccc(Br)cc2=C1NNc1nnn[nH]1 [5-bromanyl-3-[2-(2H-1,2,3,4-tetrazol-5-yl)hydrazinyl]indol-2-one] | 5.18 |
| Cc1ncc(C=O)c(CNNC(=O)c2cc(Br)ccc2O)c1O [5-bromanyl-N'-[(Z)-[5-(hydroxymethyl)-2-methyl-3-oxidanylidene-pyridin-4-ylidene]methyl]-2-oxidanyl-benzohydrazide] | 5.72 |
| Cc1cccc(NNC2=c3cc(Br)ccc3=NC2=O)c1 [5-bromo-3-[2-(3-methylphenyl)hydrazinyl]indol-2-one] | 26.9 |
| O=C(NN=Cc1c(O)ccc2ccccc12)c1cncc(Br)c1 [5-bromo-N'-[(Z)-(2-oxo-1-naphthalenylidene)methyl]-3-pyridinecarbohydrazide] | 256 |
| O=C(Cc1nc2cc([N+](=O)[O-])ccc2[nH]c1=O)c1ccccc1 [6-Nitro-3-(2-oxo-2-phenyl-ethylidene)-3,4-dihydro-1H-quinoxalin-2-one] | > 300 |
| CN1CCC2=C(C#N)C(=N)C(C#N)(C#N)C(c3ccncc3)C2C1 (stereo unspecified) [6-amino-2-methyl-8-(4-pyridyl)-1,3,8,8a-tetrahydroisoquinoline-5,7,7-tricarbonitrile] | 7.73 |
| O=NC1CC2(CC(N=O)C1N=O)OCCO2 (stereo unspecified) [9-(hydroxyamino)-8-nitroso-1,4-dioxaspiro[4.5]dec-8-en-7-one oxime] | 13 |
| Cc1ccc(N=CC2Sc3ccccc3NC2=O)cc1 (stereo unspecified) [(2E)-2-(p-toluidinomethylene)-4H-1,4-benzothiazin-3-one] | > 300 |
| CN(C)[C@@H]1C(=O)C(C(N)=O)C(=O)[C@@]2(O)C(=O)C3C(=O)c4c(O)cccc4[C@@](C)(O)[C@H]3[C@H](O)[C@@H]12 (stereo partly drawn) [(2E,4S,4aR,5S,5aR,6S,12aS)-2-[azanyl(oxidanyl)methylidene]-4-(dimethylamino)-6-methyl-5,6,10,11,12a-pentakis(oxidanyl)-4,4a,5,5a-tetrahydrotetracene-1,3,12-trione] | 29.9 |
| COc1ccc(C=C2CCCC(C(=O)C(F)(F)F)C2=O)cc1OC (stereo unspecified) [(2E,6Z)-2-(3,4-dimethoxybenzylidene)-6-(2,2,2-trifluoro-1-hydroxyethylidene)cyclohexanone] | 254 |
| CN(C)c1ccc(O)c2c1CC1CC3C(N(C)C)C(=O)C(C(N)=O)C(=O)[C@@]3(O)C(=O)C1C2=O (stereo partly drawn) [(2E,12aS)-2-[azanyl(oxidanyl)methylidene]-4,7-bis(dimethylamino)-10,11,12a-tris(oxidanyl)-4a,5,5a,6-tetrahydro-4H-tetracene-1,3,12-trione;hydrochloride] | 37 |
| C=c1cc(O)c(CN(C)C)c2oc(=Cc3ccco3)c(O)c12 [(2Z)-7-[(dimethylamino)methyl]-2-(furan-2-ylmethylidene)-6-hydroxy-4-methyl-1-benzofuran-3-one] | 39.8 |
| Cn1c2cc(=N)ccc-2c2ccc(N)cc2c1-c1ccccc1 [(3-amino-5-methyl-6-phenyl-phenanthridin-5-ium-8-yl)amine;bromide] | 5.36 |
| O=C1N=c2ccccc2=C1NNc1cccc(Cl)c1 [(3E)-1H-indole-2,3-dione 3-[(3-chlorophenyl)hydrazone]] | 45.4 |
| Cc1ccc2oc(=O)c(CC(=O)CC(C)C)nc2c1 [(3Z)-3-(2-keto-4-methyl-pentylidene)-6-methyl-4H-1,4-benzoxazin-2-one] | > 300 |
| Cc1ccc(C(=O)Cc2nc3ccccc3oc2=O)cc1 [(3Z)-3-[2-(4-methylphenyl)-2-oxidanylidene-ethylidene]-4H-1,4-benzoxazin-2-one] | > 300 |

Other lines, results leading:

| EC50 [µM] | Compound |
| --- | --- |
| > 300 | COc1cc(C2NC(=S)N=C(C)C2C(=O)OC(C)C)ccc1OC(C)C (stereo unspecified) [4-(3-methoxy-4-propan-2-yloxyphenyl)-6-methyl-2-sulfanylidene-3,4-dihydro-1H-pyrimidine-5-carboxylic acid propan-2-yl ester] |
| 43.4 | CC(=O)C1C(c2ccccc2)=NC(=O)NC1c1ccc(O)c(O)c1 (stereo unspecified) [4-[3,4-bis(oxidanyl)phenyl]-5-ethanoyl-6-phenyl-3,4-dihydro-1H-pyrimidin-2-one] |
| > 300 | Cc1ccc(-c2c(CCC(C)N=O)oc3ccc(Cl)cc23)o1 (stereo unspecified) [4-[5-chloro-3-(5-methyl-2-furanyl)-2-benzofuranyl]-2-butanone oxime] |
| 23.9 | COc1cc(S(=O)(=O)Nc2ccc(C)cc2)ccc1NC=C1C(=O)N(C)C(=O)C(C#N)=C1C [4-[[(Z)-(5-cyano-1,4-dimethyl-2,6-dioxopyridin-3-ylidene)methyl]amino]-3-methoxy-N-(4-methylphenyl)benzenesulfonamide] |
| 111 | Cc1cc(CN=Nc2ccc([N+](=O)[O-])cn2)c(C)n1-c1ccc(C(=O)O)cc1 [4-{2,5-dimethyl-3-[2-(5-nitro-2-pyridinyl)carbonohydrazonoyl]-1H-pyrrol-1-yl}benzoic acid] |
| 12.8 | Fc1ccc(C2=Nc3ncnn3C(c3ccco3)C2)cc1 (stereo unspecified) [5-(4-fluorophenyl)-7-(2-furanyl)-1,7-dihydro-[1,2,4]triazolo[1,5-a]pyrimidine] |
| > 300 | c1ccc(C2=Nc3nnnn3C(c3cccs3)C2)cc1 (stereo unspecified) [5-Phenyl-7-thiophen-2-yl-4,7-dihydro-tetrazolo[1,5-a]pyrimidine] |
| 31.1 | COc1cc(CN=Nc2[nH]c(=O)nnc2C)ccc1O [5-[2-[(E)-(3-methoxy-4-oxocyclohexa-2,5-dien-1-ylidene)methyl]hydrazinyl]-6-methyl-2H-1,2,4-triazin-3-one] |
| 143 | Cc1cc(C=NNC(=O)c2cccc(N(C)C)c2)c(C)n1-c1cc(C(=O)O)cc(C(=O)O)c1 [5-[3-((E)-{[3-(dimethylamino)benzoyl]hydrazono}methyl)-2,5-dimethyl-1H-pyrrol-1-yl]isophthalic acid] |
| 10.8 | COC1=CC(CN=Nc2[nH]c(=O)nnc2C)C=C([N+](=O)[O-])C1=O (stereo unspecified) [5-[[(E)-(3-methoxy-5-nitro-4-oxo-1-cyclohexa-2,5-dienylidene)methyl]hydrazo]-6-methyl-2H-1,2,4-triazin-3-one] |
| > 300 | Cc1ccc(N/N=C2/C(=O)Nc3ccc(F)cc32)cc1 [5-fluoro-3-[2-(4-methylphenyl)hydrazono]indolin-2-one] |
| 8.49 | COc1cccc(C2C3CN(C)CCC3=C(C#N)C(=N)C2(C#N)C#N)c1OC (stereo unspecified) [6-Amino-8-(2,3-dimethoxy-phenyl)-2-methyl-2,3,8,8a-tetrahydro-1H-isoquinoline-5,7,7-tricarbonitrile] |
| 25.5 | CCCN1CCC2=C(C#N)C(=N)C(C#N)(C#N)C(c3cc(OC)ccc3OC)C2C1 (stereo unspecified) [6-Amino-8-(2,5-dimethoxy-phenyl)-2-propyl-2,3,8,8a-tetrahydro-1H-isoquinoline-5,7,7-tricarbonitrile] |
| > 300 | N#CC1=C2CCOCC2C(c2cccnc2)C(C#N)(C#N)C1=N (stereo unspecified) [6-Amino-8-pyridin-3-yl-8,8a-dihydro-1H,3H-isochromene-5,7,7-tricarbonitrile] |
| > 300 | CCOC(=O)C1=C(C)OC(=N)C(C#N)C1c1ccc(O)c(OC)c1 (stereo unspecified) [6-amino-5-cyano-4-(4-hydroxy-3-methoxyphenyl)-2-methyl-4H-pyran-3-carboxylic acid ethyl ester] |
| 13.5 | CN1CCC2=C(C#N)C(=N)C(C#N)(C#N)C(c3cccc(Cl)c3Cl)C2C1 (stereo unspecified) [6-azanyl-8-[2,3-bis(chloranyl)phenyl]-2-methyl-1,3,8,8a-tetrahydroisoquinoline-5,7,7-tricarbonitrile] |
| 17.7 | COc1ccc(N=C(C)c2sc3ccccc3c2O)cc1 [(2Z)-2-[1-(4-methoxyanilino)ethylidene]-1-benzothiophen-3-one] |
| > 300 | N#CC(C(=O)c1cc2ccccc2o1)c1nc2ccccc2s1 (stereo unspecified) [(2Z)-3-(1-benzofuran-2-yl)-2-(3H-1,3-benzothiazol-2-ylidene)-3-oxidanylidene-propanenitrile] |
| 45.3 | C[C@H]1c2cccc(O)c2C(=O)C2C(=O)[C@]3(O)C(=O)C(C(N)=O)C(=O)[C@@H](N(C)C)C3C(O)C21 (stereo partly drawn) [(2Z,4S,5S,6R,12aS)-2-[amino(hydroxy)methylidene]-4-(dimethylamino)-5,10,11,12a-tetrahydroxy-6-methyl-4a,5,5a,6-tetrahydro-4H-tetracene-1,3,12-trione;ethanol;hydrate;hydrochloride] |
| > 300 | COc1ccc(C(=O)CC2=NCC3c4ccccc4CCN3C2=O)cc1 (stereo unspecified) [(3Z)-3-[2-(4-methoxyphenyl)-2-oxidanylidene-ethylidene]-2,6,7,11b-tetrahydro-1H-pyrazino[2,1-a]isoquinolin-4-one] |
